The target of assay [1] is JAK2 (recombinant purified GST-tagged catalytic domain) (Homo sapiens (Human), UniProt O60674). The assay can be described thus: Jak Biochemical HTRF Assay (JAK2). Particulars: [ATP] 8.5 μM.
The target of assay [2] is JAK1 (recombinant purified GST-tagged catalytic domain) (Homo sapiens (Human), UniProt P23458). Nature of the assay: Jak Biochemical HTRF Assay (JAK1). Particulars: [ATP] 31.8 μM. An outline of the steps:
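Phosphorylation of a common biotinylated peptide by each catalytic domain is measured by HTRF. The ATP-started reaction runs 120 min at room temperature before EDTA quench and detection.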
(Time-resolved FRET reads energy transfer from a long-lived donor to a nearby acceptor.)

Among the data in patent publication US9957264B2 (Merck Sharp & Dohme Corp., priority 2013, dated 2018) are IC50 values, retold here.

Sequence of JAK1 (recombinant purified GST-tagged catalytic domain) (P23458 875-1153): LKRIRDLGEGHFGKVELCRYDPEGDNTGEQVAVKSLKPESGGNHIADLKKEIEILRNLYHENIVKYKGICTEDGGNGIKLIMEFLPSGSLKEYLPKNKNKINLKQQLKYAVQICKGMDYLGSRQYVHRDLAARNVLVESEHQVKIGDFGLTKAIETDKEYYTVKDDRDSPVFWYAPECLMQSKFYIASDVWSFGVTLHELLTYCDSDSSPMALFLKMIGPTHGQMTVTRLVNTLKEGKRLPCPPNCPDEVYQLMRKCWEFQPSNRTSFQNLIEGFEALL
Sequence of JAK2 (recombinant purified GST-tagged catalytic domain) (O60674 849-1124): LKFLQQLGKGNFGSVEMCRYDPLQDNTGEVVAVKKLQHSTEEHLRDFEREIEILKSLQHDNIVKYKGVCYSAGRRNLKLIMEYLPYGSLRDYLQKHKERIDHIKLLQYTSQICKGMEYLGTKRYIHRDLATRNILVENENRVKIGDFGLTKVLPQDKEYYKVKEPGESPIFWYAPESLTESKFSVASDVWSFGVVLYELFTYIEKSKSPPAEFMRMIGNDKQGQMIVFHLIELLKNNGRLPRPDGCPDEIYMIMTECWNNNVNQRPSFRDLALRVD

As a reminder, the IC50 is the concentration that gives 50% inhibition. For `CN(C)S(=O)(=O)c1ccc(Nc2nn(C3(CC#N)CCN(CCc4ccccc4)CC3)c3cc[nH]c(=O)c23)cc1` [Example 8-18, 4-((1-(4-(cyanomethyl)-1-phenethylpiperidin-4-yl)-4-oxo-4,5-dihydro-1H-pyrazolo[4,3-c]pyridin-3-yl)amino)-N,N-dimethylbenzenesulfonamide], the IC50 in assay [1] was 14 nM; in assay [2], 3.16 nM.

In the case of `CS(=O)(=O)c1ccc(Nc2nn(C3(CC#N)CCN(c4ccc(Br)cn4)CC3)c3cc[nH]c(=O)c23)cc1` [Example 15-8, 2-(1-(5-bromopyridin-2-yl)-4-(3-((4-(methylsulfonyl)phenyl)amino)-4-oxo-4,5-dihydro-1H-pyrazolo[4,3-c]pyridin-1-yl)piperidin-4-yl)acetonitrile], the IC50 in assay [1] is 0.41 nM; in assay [2] it was 0.09 nM.

Regarding `CC(C)(C)OC(=O)[C@H]1CC[C@@](CC#N)(n2nc(Nc3ccc([C@@H](N)C(F)(F)F)cc3)c3c(=O)[nH]ccc32)CO1` (single isomer, unassigned) [Example 5-50, (2R,5S)-tert-butyl 5-(3-((4-((R or S)-1-amino-2,2,2-trifluoroethyl)phenyl)amino)-4-oxo-4,5-dihydro-1H-pyrazolo[4,3-c]pyridin-1-yl)-5-(cyanomethyl) tetrahydro-2H-pyran-2-carboxylate], the values for the IC50 in assay [1] and in assay [2] were 34.5 nM and 11.8 nM, respectively.

Turning to `Cc1cccc(Nc2nn(C3(CC#N)CCN(C(=O)OC(C)(C)C)CC3)c3cc[nH]c(=O)c23)c1` [Example 5-65, tert-butyl 4-(3-(m-toluidino)-4-oxo-4,5-dihydropyrazolo[4,3-c]pyridin-1-yl)-4-(cyanomethyl)piperidine-1-carboxylate], the IC50 in assay [1] stood at 3.22 nM; in assay [2], 0.21 nM.

On to `CC(C)(C)S(=O)(=O)c1ccc(Nc2nn([C@@]3(CC#N)CCOC3)c3cc[nH]c(=O)c23)cc1` (single isomer, unassigned) [Example 5-249, (S or R)-2-(3-(3-((4-(tert-butylsulfonyl)phenyl)amino)-4-oxo-4,5-dihydro-1H-pyrazolo[4,3-c]pyridin-1-yl)tetrahydrofuran-3-yl)acetonitrile], for which the values for the IC50 in assay [1] and in assay [2] were 2.43 nM and 1.13 nM, respectively.

As to `CN(C)S(=O)(=O)c1ccc(Nc2nn([C@@]3(CC#N)COCC[C@H]3F)c3cc[nH]c(=O)c23)cc1` (single isomer, unassigned) [Example 5-181, 4-({1-[(3S,4R or 3S,4R)-3-(cyanomethyl)-4-fluorotetrahydro-2H-pyran-3-yl]-4-oxo-4,5-dihydro-1H-pyrazolo[4,3-c]pyridin-3-yl}amino)-N,N-dimethylbenzene-sulfonamide], the IC50 was 0.95 nM in assay [1] and 0.29 nM in assay [2].

For the molecule `CO[C@H]1CCN(C(=O)c2ccc(Nc3nn([C@]4(CC#N)CCCOC4)c4cc[nH]c(=O)c34)cc2C)C1` [Example 5-116, 2-((S)-3-(3-((4-((S)-3-methoxypyrrolidine-1-carbonyl)-3-methylphenyl)amino)-4-oxo-4,5-dihydro-1H-pyrazolo[4,3-c]pyridin-1-yl)tetrahydro-2H-pyran-3-yl)acetonitrile], the figures for the IC50 in assay [1] and in assay [2] were 1.22 nM and 0.61 nM, respectively.

`Cc1cc(Nc2nn([C@]3(CC#N)CCOC[C@@H]3F)c3cc[nH]c(=O)c23)ccc1C(=O)N1CCSCC1` (single isomer, unassigned) [Example 5-262, 2-((3R,4R or 3S,4S)-3-fluoro-4-(3-((3-methyl-4-(thiomorpholine-4-carbonyl)phenyl)amino)-4-oxo-4,5-dihydro-1H-pyrazolo[4,3-c]pyridin-1-yl)tetrahydro-2H-pyran-4-yl)acetonitrile]: the IC50 in assay [1] is 0.08 nM; in assay [2], 0.09 nM.

`N#CC[C@@]1(n2nc(Nc3ccc(S(=O)(=O)N4CCC4)cc3)c3c(=O)[nH]ccc32)CCCOC1` [Example 5-105, [(3S)-3-(3-{[4-(azetidin-1-ylsulfonyl)phenyl]amino}-4-oxo-4,5-dihydro-1H-pyrazolo[4,3-c]pyridin-1-yl)tetrahydro-2H-pyran-3-yl]acetonitrile]: the IC50 in assay [1] came to 0.55 nM; in assay [2] it was 0.23 nM.

`CC(C)(C)OC(=O)[C@@H]1CC[C@@](CC#N)(n2nc(Nc3ccc(C(O)C(F)(F)F)cc3)c3c(=O)[nH]ccc32)CO1` (single isomer, unassigned) [Example 5-168, (2S,5S)-tert-butyl 5-(cyanomethyl)-5-(4-oxo-3-((4-((S or R)-2,2,2-trifluoro-1-hydroxyethyl)phenyl)amino)-4,5-dihydro-1H-pyrazolo [4,3-c]pyridin-1-yl)tetrahydro-2H-pyran-2-carboxylate]: the IC50 is 0.51 nM in assay [1] and 0.12 nM in assay [2].

Turning to `CC(C)(C)OC(=O)[C@@H]1CC[C@@](CC#N)(n2nc(Nc3ccc(C(C)(O)C(F)(F)F)cc3)c3c(=O)[nH]ccc32)CO1` (single isomer, unassigned) [Example 5-171, (2S,5S)-tert-butyl 5-(cyanomethyl)-5-(4-oxo-3-((4-((S or R)-1,1,1-trifluoro-2-hydroxypropan-2-yl)phenyl)amino)-4,5-dihydro-1H-pyrazolo[4,3-c]pyridin-1-yl)tetrahydro-2H-pyran-2-carboxylate], the IC50 in assay [1] amounted to 0.18 nM; in assay [2], 0.07 nM.

Turning to `CC(C)(C)OC(=O)N1CCC(CC#N)(n2nc(Nc3ccc(C4(C(F)(F)F)CCN(Cc5ccccc5)C4)cc3)c3c(=O)[nH]ccc32)CC1` (single isomer, unassigned) [Example 5-280, (S or R) tert-butyl 4-(3-((4-(1-benzyl-3-(trifluoromethyl)pyrrolidin-3-yl)phenyl)amino)-4-oxo-4,5-dihydro-1H-pyrazolo[4,3-c]pyridin-1-yl)-4-(cyanomethyl)piperidine-1-carboxylate], the IC50 in assay [1] was found to be 9.56 nM; in assay [2], 7.33 nM.

As to `N#CC[C@@]1(n2nc(Nc3ccc4nccc(F)c4c3)c3c(=O)[nH]ccc32)CCOC1` (single isomer, unassigned) [Example 5-245, [(3R or 3S)-3-{3-[(4-fluoroquinolin-6-yl)amino]-4-oxo-4,5-dihydro-1H-pyrazolo[4,3-c]pyridin-1-yl}tetrahydrofuran-3-yl]acetonitrile], the IC50 in assay [1] was 42.3 nM; in assay [2], 3.93 nM.

Turning to `COC1CN([C@H]2CC[C@@](CC#N)(n3nc(Nc4ccc(Cl)cc4)c4c(=O)[nH]ccc43)CC2)C1` [Example 18-9, Cis 2-(1-(3-((4-chlorophenyl)amino)-4-oxo-4,5-dihydro-1H-pyrazolo[4,3-c]pyridin-1-yl)-4-(3-methoxyazetidin-1-yl)cyclohexyl)acetonitrile], the IC50 in assay [1] stood at 102 nM; in assay [2], 1.14 nM.

In the case of `N#CC[C@]1(n2nc(Nc3ccc(Cl)cc3)c3c(=O)[nH]ccc32)CC[C@H](NCC(F)(F)F)CC1` [Example 18-11, Trans 2-(1-(3-((4-chlorophenyl)amino)-4-oxo-4,5-dihydro-1H-pyrazolo[4,3-c]pyridin-1-yl)-4-((2,2,2-trifluoroethyl)amino)cyclohexyl)acetonitrile], the values for the IC50 in assay [1] and in assay [2] were 2.2 nM and 0.22 nM, respectively.

`N#CC[C@]1(n2nc(Nc3ccc(Cl)cc3)c3c(=O)[nH]ccc32)CC[C@H](Nc2ccccc2)CC1` [Example 18-14, Trans 2-(1-(3-((4-chlorophenyl)amino)-4-oxo-4,5-dihydro-1H-pyrazolo[4,3-c]pyridin-1-yl)-4-(phenylamino)cyclohexyl)acetonitrile]: the IC50 in assay [1] came out at 32.4 nM; in assay [2], 1.71 nM.

Consider `CC(C)(C)NC(c1ccc(Nc2nn([C@]3(CC#N)CC[C@@H](C(=O)OC(C)(C)C)OC3)c3cc[nH]c(=O)c23)cc1)C(F)(F)F` (single isomer, unassigned) [Example 5-194, (2S,5S)-tert-butyl 5-(3-((4-((R or S)-1-(tert-butylamino)-2,2,2-trifluoroethyl)phenyl)amino)-4-oxo-4,5-dihydro-1H-pyrazolo [4,3-c]pyridin-1-yl)-5-(cyanomethyl)tetrahydro-2H-pyran-2-carboxylate], for which the half-maximal inhibitory concentration (IC50) is 0.82 nM in assay [1] and 0.52 nM in assay [2].

With `CC(C)NC(C)(C)c1ccc(Nc2nn([C@@]3(CC#N)CCCC[C@H]3F)c3cc[nH]c(=O)c23)cc1` [Example 5-175, [(1R,2R)-2-fluoro-1-{3-[(4-{1-methyl-1-[(1-methylethyl)amino]ethyl}phenyl)amino]-4-oxo-4,5-dihydro-1H-pyrazolo[4,3-c]pyridin-1-yl}cyclohexyl]acetonitrile], the 50% inhibitory concentration (IC50) in assay [1] was determined as 0.06 nM; in assay [2] it was 0.09 nM.

Turning to `CCNC(c1ccc(Nc2nn([C@]3(CC#N)CC[C@@H](C(=O)OC(C)(C)C)OC3)c3cc[nH]c(=O)c23)cc1)C(F)(F)F` (single isomer, unassigned) [Example 5-207, (2S,5S)-tert-butyl 5-(cyanomethyl)-5-(3-((4-((R or S)-1-(ethylamino)-2,2,2-trifluoroethyl)phenyl)amino)-4-oxo-4,5-dihydro-1H-pyrazolo[4,3-c]pyridin-1-yl)tetrahydro-2H-pyran-2-carboxylate], the IC50 in assay [1] worked out at 0.26 nM; in assay [2], 0.19 nM.

With `CN(C)S(=O)(=O)c1ccc(Nc2nn(C3(CC#N)CCN(C(=O)OC(C)(C)C)CC3)c3cc[nH]c(=O)c23)cc1` [Example 5-1, tert-butyl 4-(cyanomethyl)-4-(3-((4-(N,N-dimethylsulfamoyl)phenyl)amino)-4-oxo-4,5-dihydro-1H-pyrazolo[4,3-c]pyridin-1-yl)piperidine-1-carboxylate], the values for the IC50 in assay [1] and in assay [2] were 0.28 nM and 0.22 nM, respectively.

As to `CC(C)(C)OC(=O)N1CCC(CC#N)(n2nc(Nc3ccc4c(c3)CCS4(=O)=O)c3c(=O)[nH]ccc32)CC1` [Example 5-82, tert-butyl 4-(cyanomethyl)-4-(3-((1,1-dioxido-2,3-dihydrobenzo[d]thiophen-5-yl)amino)-4-oxo-4,5-dihydro-1H-pyrazolo[4,3-c]pyridin-1-yl)piperidine-1-carboxylate], the values for the IC50 in assay [1] and in assay [2] were 0.31 nM and 0.1 nM, respectively.
